Experimental data published in PubChem BioAssay AID2060506 (Molecular Pharmacology Branch, DTP, NCI, 2025).

System: 598228-144-R-J1-PDC complex spheroid viability
Assay: Anticancer human tumor 598228-144-R-J1-PDC patient-derived serous endometrial adenocarcinoma cell line growth inhibition [GQUAD]
Conditions: for IC50: curve of first compound; for viability, T/C: stronger effect = lower value; active means viability on the fitted dose curve at most 10% of control; inactive means the rest
Summary of the method: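 Viability of tumor cells grown as complex spheroids with endothelial and stromal cells, exposed to drug combinations. Top concentration at or near clinical Cmax (else 10 microM), diluted in half-log increments.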

[1] = second compound 0.0316 µM, first compound 0.0316 µM
[2] = second compound 0.0316 µM, first compound 0.1 µM
[3] = second compound 0.0316 µM, first compound 0.316 µM
[4] = second compound 0.0316 µM, first compound 1 µM
[5] = second compound 0.0316 µM, first compound 3.16 µM
[6] = second compound 0.0316 µM, first compound 10 µM
[7] = second compound 0.1 µM, first compound 0.0316 µM
[8] = second compound 0.1 µM, first compound 0.1 µM
[9] = second compound 0.1 µM, first compound 0.316 µM
[10] = second compound 0.1 µM, first compound 1 µM
[11] = second compound 0.1 µM, first compound 3.16 µM
[12] = second compound 0.1 µM, first compound 10 µM
[13] = second compound 0.316 µM, first compound 0.0316 µM
[14] = second compound 0.316 µM, first compound 0.1 µM
[15] = second compound 0.316 µM, first compound 0.316 µM
[16] = second compound 0.316 µM, first compound 1 µM
[17] = second compound 0.316 µM, first compound 3.16 µM
[18] = second compound 0.316 µM, first compound 10 µM
[19] = second compound 1 µM, first compound 0.0316 µM
[20] = second compound 1 µM, first compound 0.1 µM
[21] = second compound 1 µM, first compound 0.316 µM
[22] = second compound 1 µM, first compound 1 µM
[23] = second compound 1 µM, first compound 3.16 µM
[24] = second compound 1 µM, first compound 10 µM
[25] = second compound 3.16 µM, first compound 0.0316 µM
[26] = second compound 3.16 µM, first compound 0.1 µM
[27] = second compound 3.16 µM, first compound 0.316 µM
[28] = second compound 3.16 µM, first compound 1 µM
[29] = second compound 3.16 µM, first compound 3.16 µM
[30] = second compound 3.16 µM, first compound 10 µM
[31] = second compound 10 µM, first compound 0.0316 µM
[32] = second compound 10 µM, first compound 0.1 µM
[33] = second compound 10 µM, first compound 0.316 µM
[34] = second compound 10 µM, first compound 1 µM
[35] = second compound 10 µM, first compound 3.16 µM
[36] = second compound 10 µM, first compound 10 µM
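Further: spheroids exposed to the agents for one week before reading.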
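Wherever viability, T/C is given: percent of vehicle DMSO control viability so 100% = untreated growth.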

CCCS(=O)(=O)Nc1ccc(F)c(C(=O)c2c[nH]c3ncc(-c4ccc(Cl)cc4)cc23)c1F + Cc1cnc(CNC(=O)c2c(=O)c3ccc(N4CCCN(C)CC4)nc3n3c2sc2ccccc23)cn1
6450 nM: IC50 (second compound 0.1 µM)
< 31.6 nM: IC50 (second compound 10 µM)
inactive: viability, T/C [1] 92.8% | viability, T/C [2] 96% | viability, T/C [3] 113% | viability, T/C [4] 92.5% | viability, T/C [5] 109% | viability, T/C [6] 26.9% | viability, T/C [7] 77.7% | viability, T/C [8] 81.5% | viability, T/C [9] 60.7% | viability, T/C [10] 65.6% | viability, T/C [11] 92.2% | viability, T/C [12] 34.4% | viability, T/C [13] 59.4% | viability, T/C [14] 82% | viability, T/C [15] 74% | viability, T/C [16] 62.3% | viability, T/C [17] 65.7% | viability, T/C [18] 27.3% | viability, T/C [19] 64.5% | viability, T/C [20] 70.7% | viability, T/C [21] 62.3% | viability, T/C [22] 65.6% | viability, T/C [23] 73.8% | viability, T/C [24] 27.7% | viability, T/C [25] 59.9% | viability, T/C [26] 47.5% | viability, T/C [27] 48.4% | viability, T/C [28] 61.5% | viability, T/C [29] 65.6% | viability, T/C [31] 33.5% | viability, T/C [32] 32.5% | viability, T/C [33] 18.7% | viability, T/C [34] 24.7% | viability, T/C [35] 40.9% | viability, T/C [36] 0.26%
5230 nM: IC50 (second compound 1 µM)
3620 nM: IC50 (second compound 3.16 µM)
6970 nM: IC50 (second compound 0.0316 µM)
4940 nM: IC50 (second compound 0.316 µM)
active: viability, T/C [30] 0.38%

CC1COCCN1c1cc(C2(S(C)(=N)=O)CC2)nc(-c2ccnc3[nH]ccc23)n1 (stereo unspecified) + Cc1[nH]c2ccc(F)cc2c1-c1nc2c3cccnc3c3ncccc3c2[nH]1
914 nM: IC50 (second compound 0.316 µM)
629 nM: IC50 (second compound 10 µM)
inactive: viability, T/C [1] 114% | viability, T/C [2] 108% | viability, T/C [3] 89.2% | viability, T/C [4] 69.9% | viability, T/C [5] 73% | viability, T/C [6] 50% | viability, T/C [7] 106% | viability, T/C [8] 100% | viability, T/C [9] 97.7% | viability, T/C [10] 87.1% | viability, T/C [11] 56.9% | viability, T/C [12] 40.5% | viability, T/C [13] 97.3% | viability, T/C [14] 94.4% | viability, T/C [15] 69% | viability, T/C [16] 47% | viability, T/C [17] 52.9% | viability, T/C [18] 43.3% | viability, T/C [19] 58% | viability, T/C [20] 59.7% | viability, T/C [21] 58.9% | viability, T/C [22] 40.5% | viability, T/C [23] 45.1% | viability, T/C [24] 34.5% | viability, T/C [25] 36.9% | viability, T/C [26] 42.2% | viability, T/C [27] 39.2% | viability, T/C [28] 36.8% | viability, T/C [29] 39.7% | viability, T/C [30] 35.6% | viability, T/C [31] 60.3% | viability, T/C [32] 53.8% | viability, T/C [33] 59.4% | viability, T/C [34] 43.1% | viability, T/C [35] 44.6% | viability, T/C [36] 41.5%
5230 nM: IC50 (second compound 0.1 µM)
< 31.6 nM: IC50 (second compound 3.16 µM)
> 10000 nM: IC50 (second compound 0.0316 µM)
551 nM: IC50 (second compound 1 µM)

CC(=O)O[C@H]1C(=O)[C@@]2(C)[C@H]([C@H](OC(=O)c3ccccc3)[C@]3(O)C[C@H](OC(=O)[C@H](O)[C@@H](NC(=O)c4ccccc4)c4ccccc4)C(C)=C1C3(C)C)[C@]1(OC(C)=O)CO[C@@H]1C[C@@H]2O + CN(C)c1ccc(Nc2c3ccc(NC(=O)CCN4CCCC4)cc3nc3cc(NC(=O)CCN4CCCC4)ccc23)cc1
< 31.6 nM: IC50 (second compound 0.0316 µM) | IC50 (second compound 0.1 µM) | IC50 (second compound 0.316 µM) | IC50 (second compound 1 µM) | IC50 (second compound 3.16 µM) | IC50 (second compound 10 µM)
inactive: viability, T/C [1] 49.4% | viability, T/C [2] 43.3% | viability, T/C [3] 44.2% | viability, T/C [4] 32.9% | viability, T/C [5] 37.3% | viability, T/C [6] 53.6% | viability, T/C [7] 47.6% | viability, T/C [8] 43.1% | viability, T/C [9] 35% | viability, T/C [10] 38.2% | viability, T/C [11] 33.7% | viability, T/C [12] 35.4% | viability, T/C [13] 47.6% | viability, T/C [14] 40.9% | viability, T/C [15] 40.7% | viability, T/C [16] 34.6% | viability, T/C [17] 47% | viability, T/C [18] 49.4% | viability, T/C [19] 51.8% | viability, T/C [20] 38.7% | viability, T/C [21] 41.9% | viability, T/C [22] 42.1% | viability, T/C [23] 45.4% | viability, T/C [24] 37% | viability, T/C [25] 51.6% | viability, T/C [26] 34.6% | viability, T/C [27] 41.6% | viability, T/C [28] 38.9% | viability, T/C [29] 33.1% | viability, T/C [30] 38.1% | viability, T/C [31] 29.1% | viability, T/C [32] 29.6% | viability, T/C [33] 29.1% | viability, T/C [34] 25.2% | viability, T/C [35] 19.4% | viability, T/C [36] 30.9%
